In PMC6581923 (Journal of Molecular Neuroscience, 2018):
One block for each molecule: values may come before it.

Assays:
PAC1-R = biological target: T1, PAC1-R (Homo sapiens, UniProt P41586); assay: cAMP accumulation assay in PAC1-CHO cells; assay type: cell-based; details: DMEM, 37 °C, 5-10 min, enzyme immunoassay for cAMP, % of maximal cAMP level with PACAP27, means ± SEM of four experiments, read-out: EC50 (activation of PAC1-R, cAMP accumulation)
T1 construct: expressed in transfected cells; host or cells: PAC1-CHO cells (CHO cells expressing PAC1-R); That they are transfected is inferred from the cell line's name
T1 sequence (P41586 21-468): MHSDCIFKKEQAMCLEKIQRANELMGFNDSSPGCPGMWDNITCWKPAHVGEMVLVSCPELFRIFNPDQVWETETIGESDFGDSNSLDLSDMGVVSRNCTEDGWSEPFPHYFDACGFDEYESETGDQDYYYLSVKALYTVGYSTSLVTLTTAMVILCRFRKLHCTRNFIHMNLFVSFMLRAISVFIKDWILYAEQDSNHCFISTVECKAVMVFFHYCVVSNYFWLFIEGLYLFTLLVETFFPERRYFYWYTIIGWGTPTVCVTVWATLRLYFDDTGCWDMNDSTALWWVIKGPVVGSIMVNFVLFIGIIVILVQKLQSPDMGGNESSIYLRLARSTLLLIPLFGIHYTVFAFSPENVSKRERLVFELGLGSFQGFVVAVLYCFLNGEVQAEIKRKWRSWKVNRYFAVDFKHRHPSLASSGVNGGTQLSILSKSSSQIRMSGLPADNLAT
Protocol: PAC1-CHO cells cultured in Dulbecco’s Modified Eagle’s Medium (DMEM) at 37 °C were scraped off the surface with rubber policeman, washed twice with PBS and the density of the cells was adjusted to 2 × 10^6 /mL. Peptides were added to 500 uL cells suspension with the corresponding varying working concentrations of the detected factor. After incubation at 37 °C for 5-10 min cells were harvested and the lysates were subjected to cAMP quantification using the enzyme immunoassay kit for cAMP (Biyuntian, Shanghai, China), following the manufacturer’s instructions. Protein concentration of each sample was determined using BCA assay, and the cAMP level of each sample was calculated following the formula: cAMP level (pmol/mg protein) = cAMP concentration (pmol/mL)/protein concentration (mg/mL). The cAMP level in each sample was plotted as the percentage (%) of the maximal cAMP level in cells treated with PACAP27 versus the logarithmic value of the peptide concentrations. All experiments were run with at least four parallel samples and were repeated three times.
The data are means ± SEM of four experiments

[1] = ref Steingart et al. [2000]; cited from earlier work
Excerpt: VIP is an important neuromodulator along the visual transmission pathways, not only in the retina, but all the way to the cortex where it influences visual information processing (Galletti and Fattori [2018]; Wilson and Glickfeld [2014]). Regarding retinoprotection, a few studies i ...

- EC50 (PAC1-R): 30.1 ± 4.1 nM
Molecule: CC[C@H](C)[C@H](NC(=O)[C@H](CO)NC(=O)[C@H](CC(N)=O)NC(=O)[C@H](CC(C)C)NC(=O)[C@H](Cc1ccc(O)cc1)NC(=O)[C@H](CCCCN)NC(=O)[C@H](CCCCN)NC(=O)[C@@H](NC(=O)[C@H](C)NC(=O)[C@H](CCSC)NC(=O)[C@H](CCC(N)=O)NC(=O)[C@H](CCCCN)NC(=O)[C@H](CCCN=C(N)N)NC(=O)[C@H](CC(C)C)NC(=O)[C@H](CCCN=C(N)N)NC(=O)[C@@H](NC(=O)[C@H](Cc1ccc(O)cc1)NC(=O)[C@H](CC(N)=O)NC(=O)[C@H](CC(=O)O)NC(=O)[C@@H](NC(=O)[C@H](Cc1ccccc1)NC(=O)[C@@H](NC(=O)[C@H](C)NC(=O)[C@H](CC(=O)O)NC(=O)[C@H](CO)NC(=O)[C@@H](N)Cc1c[nH]cn1)C(C)C)[C@@H](C)O)[C@@H](C)O)C(C)C)C(=O)N[C@@H](CC(C)C)C(=O)N[C@@H](CC(N)=O)C(N)=O [VIP, vasoactive intestinal peptide, reference compound]

B1: activity-dependent neurotrophic protein (protein, UniProt Q9H2P0 1-1102, looked up)
Activity-dependent …: MFQLPVNNLGSLRKARKTVKKILSDIGLEYCKEHIEDFKQFEPNDFYLKNTTWEDVGLWDPSLTKNQDYRTKPFCCSACPFSSKFFSAYKSHFRNVHSEDFENRILLNCPYCTFNADKKTLETHIKIFHAPNASAPSSSLSTFKDKNKNDGLKPKQADSVEQAVYYCKKCTYRDPLYEIVRKHIYREHFQHVAAPYIAKAGEKSLNGAVPLGSNAREESSIHCKRCLFMPKSYEALVQHVIEDHERIGYQVTAMIGHTNVVVPRSKPLMLIAPKPQDKKSMGLPPRIGSLASGNVRSLPSQQMVNRLSIPKPNLNSTGVNMMSSVHLQQNNYGVKSVGQGYSVGQSMRLGLGGNAPVSIPQQSQSVKQLLPSGNGRSYGLGSEQRSQAPARYSLQSANASSLSSGQLKSPSLSQSQASRVLGQSSSKPAAAATGPPPGNTSSTQKWKICTICNELFPENVYSVHFEKEHKAEKVPAVANYIMKIHNFTSKCLYCNRYLPTDTLLNHMLIHGLSCPYCRSTFNDVEKMAAHMRMVHIDEEMGPKTDSTLSFDLTLQQGSHTNIHLLVTTYNLRDAPAESVAYHAQNNPPVPPKPQPKVQEKADIPVKSSPQAAVPYKKDVGKTLCPLCFSILKGPISDALAHHLRERHQVIQTVHPVEKKLTYKCIHCLGVYTSNMTASTITLHLVHCRGVGKTQNGQDKTNAPSRLNQSPSLAPVKRTYEQMEFPLLKKRKLDDDSDSPSFFEEKPEEPVVLALDPKGHEDDSYEARKSFLTKYFNKQPYPTRREIEKLAASLWLWKSDIASHFSNKRKKCVRDCEKYKPGVLLGFNMKELNKVKHEMDFDAEWLFENHDEKDSRVNASKTADKKLNLGKEDDSSSDSFENLEEESNESGSPFDPVFEVEPKISNDNPEEHVLKVIPEDASESEEKLDQKEDGSKYETIHLTEEPTKLMHNASDSEVDQDDVVEWKDGASPSESGPGSQQVSDFEDNTCEMKPGTWSDESSQSEDARSSKPAAKKKATMQGDREQLKWKNSSYGKVEGFWSKDQSQWKNASENDERLSNPQIEWQNSTIDSEDGEQFDNMTDGVAEPMHGSLAGVKLSSQQA
- Protection against a variety of stress factors [1]: strong protection against a variety of stress factors
